How the values were obtained:
Assay type in all cases: functional
HOP-62 = test: Antitumor activity against human HOP62 cells assessed as cell growth at 10 uM after 48 hrs by sulforhodamine B assay; settings: HOP-62, 48 h, read-out: Activity
NCI-H226 = test: Antitumor activity against human NCI-H226 cells assessed as cell growth at 10 uM after 48 hrs by sulforhodamine B assay; settings: NCI-H226, 48 h, read-out: Activity
NCI-H522 = test: Antitumor activity against human NCI-H522 cells assessed as cell growth at 10 uM after 48 hrs by sulforhodamine B assay; settings: NCI-H522, 48 h, read-out: Activity
HCC 2998 = test: Antitumor activity against human HCC2998 cells assessed as cell growth at 10 uM after 48 hrs by sulforhodamine B assay; settings: HCC 2998, 48 h, read-out: Activity
SW-620 = test: Antitumor activity against human SW620 cells assessed as cell growth at 10 uM after 48 hrs by sulforhodamine B assay; settings: SW-620, 48 h, read-out: Activity
[1] = Antitumor activity against human Hs 578T cells assessed as cell growth at 10 uM after 48 hrs by sulforhodamine B assay; settings: read-out: Activity
MCF7 = test: Antitumor activity against human MCF7 cells assessed as cell growth at 10 uM after 48 hrs by sulforhodamine B assay; settings: MCF7, 48 h, read-out: Activity
MDA-MB-435 = test: Antitumor activity against human MDA-MB-435 cells assessed as cell growth at 10 uM after 48 hrs by sulforhodamine B assay; settings: MDA-MB-435, 48 h, read-out: Activity
NCI/ADR-RES = test: Antitumor activity against human NCI/ADR-RES cells assessed as cell growth at 10 uM after 48 hrs by sulforhodamine B assay; settings: read-out: Activity
T47D = test: Antitumor activity against human T47D cells assessed as cell growth at 10 uM after 48 hrs by sulforhodamine B assay; settings: read-out: Activity
OVCAR-3 = test: Antitumor activity against human OVCAR-3 cells assessed as cell growth at 10 uM after 48 hrs by sulforhodamine B assay; settings: OVCAR-3, 48 h, read-out: Activity
OVCAR-4 = test: Antitumor activity against human OVCAR4 cells assessed as cell growth at 10 uM after 48 hrs by sulforhodamine B assay; settings: OVCAR-4, 48 h, read-out: Activity
OVCAR-5 = test: Antitumor activity against human OVCAR5 cells assessed as cell growth at 10 uM after 48 hrs by sulforhodamine B assay; settings: OVCAR-5, 48 h, read-out: Activity
SK-OV-3 = test: Antitumor activity against human SKOV3 cells assessed as cell growth at 10 uM after 48 hrs by sulforhodamine B assay; settings: SK-OV-3, 48 h, read-out: Activity
CCRF-CEM = test: Antitumor activity against human CCRF-CEM cells assessed as cell growth at 10 uM after 48 hrs by sulforhodamine B assay; settings: read-out: Activity
HL-60(TB) = test: Antitumor activity against human HL-60(TB) cells assessed as cell growth at 10 uM after 48 hrs by sulforhodamine B assay; settings: HL-60, 48 h, read-out: Activity
K562 = test: Antitumor activity against human K562 cells assessed as cell growth at 10 uM after 48 hrs by sulforhodamine B assay; settings: K562, 48 h, read-out: Activity
A498 = test: Antitumor activity against human A498 cells assessed as cell growth at 10 uM after 48 hrs by sulforhodamine B assay; settings: A498, 48 h, read-out: Activity
CAKI-1 = test: Antitumor activity against human Caki1 cells assessed as cell growth at 10 uM after 48 hrs by sulforhodamine B assay; settings: CAKI-1, 48 h, read-out: Activity
RXF 393 = test: Antitumor activity against human RXF393 cells assessed as cell growth at 10 uM after 48 hrs by sulforhodamine B assay; settings: RXF 393, 48 h, read-out: Activity
TK-10 = test: Antitumor activity against human TK10 cells assessed as cell growth at 10 uM after 48 hrs by sulforhodamine B assay; settings: TK-10, 48 h, read-out: Activity
LOX IMVI = test: Antitumor activity against human LOXIMVI cells assessed as cell growth at 10 uM after 48 hrs by sulforhodamine B assay; settings: read-out: Activity
SK-MEL-2 = test: Antitumor activity against human SK-MEL-2 cells assessed as cell growth at 10 uM after 48 hrs by sulforhodamine B assay; settings: SK-MEL-2, 48 h, read-out: Activity
UACC-257 = test: Antitumor activity against human UACC257 cells assessed as cell growth at 10 uM after 48 hrs by sulforhodamine B assay; settings: UACC-257, 48 h, read-out: Activity
SF-268 = test: Antitumor activity against human SF268 cells assessed as cell growth at 10 uM after 48 hrs by sulforhodamine B assay; settings: SF-268, 48 h, read-out: Activity
SF-539 = test: Antitumor activity against human SF539 cells assessed as cell growth at 10 uM after 48 hrs by sulforhodamine B assay; settings: SF-539, 48 h, read-out: Activity
SNB-19 = test: Antitumor activity against human SNB19 cells assessed as cell growth at 10 uM after 48 hrs by sulforhodamine B assay; settings: SNB-19, 48 h, read-out: Activity
Rattus norvegicus = test: Antiinflammatory activity in Wister albino rat assessed as inhibition of carrageenan-induced paw oedema at 50 mg/kg, ip administered 1 hr before carrageenan challenge measured after 24 hrs of induction of inflammation relative to control; settings: route intraperitoneal
SF-295 = test: Antitumor activity against human SF295 cells assessed as cell growth at 10 uM after 48 hrs by sulforhodamine B assay; settings: SF-295, 48 h, read-out: Activity

## CN1C/C(=C\c2ccc(-c3cccs3)cc2)C(=O)[C@]2(C1)[C@@H](c1ccc(-c3cccs3)cc1)CN(C)[C@@]21C(=O)N(C)c2ccccc21
HOP-62
  growth at 10 µM: 58.8%
NCI-H226
  growth at 10 µM: 58%
NCI-H522
  growth at 10 µM: 49.4%
HCC 2998
  growth at 10 µM: 40.6%
SW-620
  growth at 10 µM: 53.8%
[1]
  growth at 10 µM: 79.3%
MCF7
  growth at 10 µM: 50.4%
MDA-MB-435
  growth at 10 µM: 40.6%
NCI/ADR-RES
  growth at 10 µM: 37.7%
T47D
  growth at 10 µM: 22.7%
OVCAR-3
  growth at 10 µM: 33.6%
OVCAR-4
  growth at 10 µM: 37.3%
OVCAR-5
  growth at 10 µM: 103%
SK-OV-3
  growth at 10 µM: 59.5%
CCRF-CEM
  growth at 10 µM: 56.4%
HL-60(TB)
  growth at 10 µM: 22.6%
K562
  growth at 10 µM: 59.5%
A498
  growth at 10 µM: 46.5%
CAKI-1
  growth at 10 µM: 57.2%
RXF 393
  growth at 10 µM: 55.6%
TK-10
  growth at 10 µM: 78.8%
LOX IMVI
  growth at 10 µM: 65%
SK-MEL-2
  growth at 10 µM: 68.6%
UACC-257
  growth at 10 µM: 64.6%
SF-268
  growth at 10 µM: 72.4%
SF-539
  growth at 10 µM: 75.4%
SNB-19
  growth at 10 µM: 65.3%
Rattus norvegicus
  inhibition in vivo at 50 mg/kg: 74.3%

## COc1ccc(/C=C2\CN(C)C[C@@]3(C2=O)[C@@H](c2ccccc2)CN(C)[C@@]32C(=O)Nc3ccccc32)cc1
HOP-62
  growth at 10 µM: 69.9%
NCI-H226
  growth at 10 µM: 63%
NCI-H522
  growth at 10 µM: 50.2%
HCC 2998
  growth at 10 µM: 65.5%
SW-620
  growth at 10 µM: 47.8%
[1]
  growth at 10 µM: 74.7%
MCF7
  growth at 10 µM: 30.9%
MDA-MB-435
  growth at 10 µM: 60.7%
NCI/ADR-RES
  growth at 10 µM: 36.5%
T47D
  growth at 10 µM: 31.6%
OVCAR-3
  growth at 10 µM: 50.3%
OVCAR-4
  growth at 10 µM: 52.7%
OVCAR-5
  growth at 10 µM: 92.5%
SK-OV-3
  growth at 10 µM: 75.6%
CCRF-CEM
  growth at 10 µM: 45.4%
HL-60(TB)
  growth at 10 µM: 21.5%
K562
  growth at 10 µM: 73.3%
A498
  growth at 10 µM: 32.5%
CAKI-1
  growth at 10 µM: 54.3%
RXF 393
  growth at 10 µM: 57.8%
TK-10
  growth at 10 µM: 73.1%
LOX IMVI
  growth at 10 µM: 65.3%
SK-MEL-2
  growth at 10 µM: 60.7%
UACC-257
  growth at 10 µM: 70.3%
SF-268
  growth at 10 µM: 61.8%
SF-539
  growth at 10 µM: 74%
SNB-19
  growth at 10 µM: 61.6%
Rattus norvegicus
  inhibition in vivo at 50 mg/kg: 52.9%

## CN1C/C(=C\c2ccc(Cl)cc2)C(=O)[C@]2(C1)[C@@H](c1ccc(Cl)cc1)CN(C)[C@@]21C(=O)N(C)c2ccccc21
HOP-62
  growth at 10 µM: 71%
NCI-H226
  growth at 10 µM: 58.6%
NCI-H522
  growth at 10 µM: 56.4%
HCC 2998
  growth at 10 µM: 71.9%
SW-620
  growth at 10 µM: 68.1%
[1]
  growth at 10 µM: 97.3%
MCF7
  growth at 10 µM: 86.4%
MDA-MB-435
  growth at 10 µM: 87.8%
NCI/ADR-RES
  growth at 10 µM: 56.9%
T47D
  growth at 10 µM: 46.7%
OVCAR-3
  growth at 10 µM: 60.5%
OVCAR-4
  growth at 10 µM: 43.1%
OVCAR-5
  growth at 10 µM: 87.7%
SK-OV-3
  growth at 10 µM: 85.2%
CCRF-CEM
  growth at 10 µM: 31.5%
HL-60(TB)
  growth at 10 µM: 16.6%
K562
  growth at 10 µM: 30.4%
A498
  growth at 10 µM: 69.4%
CAKI-1
  growth at 10 µM: 56.6%
RXF 393
  growth at 10 µM: 67.2%
TK-10
  growth at 10 µM: 81.8%
LOX IMVI
  growth at 10 µM: 73.9%
SK-MEL-2
  growth at 10 µM: 71.9%
UACC-257
  growth at 10 µM: 72%
SF-268
  growth at 10 µM: 83.6%
SF-295
  growth at 10 µM: 65.6%
SF-539
  growth at 10 µM: 78.1%
SNB-19
  growth at 10 µM: 77.3%
Rattus norvegicus
  inhibition in vivo at 50 mg/kg: 49.3%

## CN1C/C(=C\c2ccc(Cl)cc2)C(=O)[C@]2(C1)[C@@H](c1ccc(Cl)cc1)CN(C)[C@@]21C(=O)Nc2ccccc21
HOP-62
  growth at 10 µM: 73.6%
NCI-H226
  growth at 10 µM: 64.4%
NCI-H522
  growth at 10 µM: 59.8%
HCC 2998
  growth at 10 µM: 70.7%
SW-620
  growth at 10 µM: 57.7%
[1]
  growth at 10 µM: 79.7%
MCF7
  growth at 10 µM: 44.9%
MDA-MB-435
  growth at 10 µM: 61.1%
NCI/ADR-RES
  growth at 10 µM: 62.1%
T47D
  growth at 10 µM: 46.1%
OVCAR-3
  growth at 10 µM: 48.4%
OVCAR-4
  growth at 10 µM: 49.6%
OVCAR-5
  growth at 10 µM: 94.2%
SK-OV-3
  growth at 10 µM: 80.6%
CCRF-CEM
  growth at 10 µM: 51.3%
HL-60(TB)
  growth at 10 µM: 41.6%
K562
  growth at 10 µM: 45.1%
A498
  growth at 10 µM: 55.3%
CAKI-1
  growth at 10 µM: 45.8%
RXF 393
  growth at 10 µM: 67.5%
TK-10
  growth at 10 µM: 88.6%
LOX IMVI
  growth at 10 µM: 72.3%
SK-MEL-2
  growth at 10 µM: 76.2%
UACC-257
  growth at 10 µM: 79.3%
SF-268
  growth at 10 µM: 60.6%
SF-295
  growth at 10 µM: 64.5%
SF-539
  growth at 10 µM: 83.3%
SNB-19
  growth at 10 µM: 76.5%
Rattus norvegicus
  inhibition in vivo at 50 mg/kg: 38.2%
